# According to ChEMBL document CHEMBL1139919, “Beta-substituted cyclohexanecarboxamide cathepsin K inhibitors: modification of the 1,2-disubstituted aromatic core” (Bioorg Med Chem Lett, 2007):
# Assays:
# [1] = molecular target: Cathepsin K (Homo sapiens, UniProt P43235); assay: Inhibition of humaized rabbit cathepsin K
# [2] = organism: Oryctolagus cuniculus; assay: Selectivity for IC50 of new Zealand white […] bone resorption over IC50 rabbit cathepsin K; assay type: functional
# [3] = organism: Homo sapiens; assay: Selectivity for human cathepsin K over human cathepsin B
# [4] = molecular target: T1, Cathepsin K (Oryctolagus cuniculus, UniProt P43236); assay: Inhibition of rabbit cathepsin K
# T1 sequence (P43236 whole entry): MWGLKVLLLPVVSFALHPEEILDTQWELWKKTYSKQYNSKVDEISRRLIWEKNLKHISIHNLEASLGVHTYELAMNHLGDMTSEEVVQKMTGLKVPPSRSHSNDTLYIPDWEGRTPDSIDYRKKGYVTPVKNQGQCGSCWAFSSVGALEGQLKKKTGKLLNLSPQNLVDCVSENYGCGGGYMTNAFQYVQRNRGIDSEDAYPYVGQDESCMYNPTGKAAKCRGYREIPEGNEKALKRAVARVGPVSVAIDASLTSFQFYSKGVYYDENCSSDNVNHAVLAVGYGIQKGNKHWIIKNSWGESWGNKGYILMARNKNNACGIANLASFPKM
# [5] = organism: Oryctolagus cuniculus; assay: Inhibition of bone resorption in New Zealand white rabbit by crosslaps ELISA assay; assay type: functional, organism-based
# [6] = organism: Homo sapiens; assay: Selectivity for human cathepsin K over human cathepsin L
# [7] = organism: Homo sapiens; assay: Selectivity for human cathepsin K over human cathepsin S
# [8] = Oral bioavailability in rat at 10 mg/kg; assay type: ADME, organism-based; settings: in vivo
# [9] = AUC in rat at 10 mg/kg, po or 5 mg/kg, iv; assay type: ADME, organism-based; settings: plasma
# [10] = Half life in rat at 10 mg/kg, po or 5 mg/kg, iv; assay type: ADME, organism-based; settings: in vivo
# [11] = Half life in rat at 5 mg/kg, po or 1 mg/kg, iv; assay type: ADME, organism-based; settings: in vivo
# [12] = AUC in rat at 5 mg/kg, po or 1 mg/kg, iv; assay type: ADME, organism-based; settings: plasma
# [13] = Oral bioavailability in rat at 5 mg/kg; assay type: ADME, organism-based; settings: in vivo
SMILES,IC50 [1] [nM],Ratio IC50 [2],Selectivity ratio [3],IC50 [4] [nM],IC50 ([5]; Oryctolagus cuniculus) [nM],Selectivity ratio [6],Selectivity ratio [7],bioavailability [8] [%],IC50 [5] [nM],AUC [9] [µM·h],half-life [10] [h],half-life [11] [h],AUC [12] [µM·h],bioavailability [13] [%]
CSc1ccc(-c2c[n+]([O-])ccc2C2CCC(F)(F)CC2C(=O)NCC#N)cc1 (racemic),5,15,> 2000,5,75,460,480,,,,,,,
CSc1ccc(-c2ccccc2C2CCC(F)(F)CC2C(=O)NCC#N)cc1 (racemic; form 1) [listing 1 of 2 here],0.3,,,0.3,,,,39,16,18.5,,,,
CSc1ccc(-c2c(C3CCC(F)(F)CC3C(=O)NCC#N)cc[nH]c2=O)cc1 (racemic),8,14,> 1250,6,84,430,310,,,,,,,
CSc1ccc(-c2cn(C)nc2C2CCC(F)(F)CC2C(=O)NCC#N)cc1 (racemic),0.4,103,9500,0.4,41,730,490,100,,28.9,4.6,,,
CSc1ccc(-c2c[nH]c(=O)cc2C2CCC(F)(F)CC2C(=O)NCC#N)cc1 (racemic),4,4,1200,5,20,410,540,,,,,,,
N#CCNC(=O)C1CC(F)(F)CCC1c1cnccc1-c1ccc(SCF)cc1 (racemic),2,29,> 5000,2,58,260,450,,,,,,,
CSc1ccc(-c2cnccc2C2CCC(F)(F)CC2C(=O)NCC#N)cc1 (racemic),1,18,> 10000,1,18,520,720,,,,,1,8.6,65
CSc1ccc(-c2c(C3CCC(F)(F)CC3C(=O)NCC#N)nnn2Cc2ccccc2)cc1 (racemic),2,4,1400,9,33,350,180,,,,,,,
CSc1ccc(-c2nc(C)sc2C2CCC(F)(F)CC2C(=O)NCC#N)cc1 (racemic),0.2,170,15000,0.1,17,270,380,,,,,,,
CSc1ccc(-c2ncccc2C2CCC(F)(F)CC2C(=O)NCC#N)cc1 (racemic),1,10,> 10000,1,10,540,850,,,,,,,
CSc1ccc(-c2ccccc2C2CCC(F)(F)CC2C(=O)NCC#N)cc1 (racemic; form 2) [listing 1 of 2 here],0.5,,,,,,,,38,,,,,
CSc1ccc(-c2ccccc2C2CCC(F)(F)CC2C(=O)NCC#N)cc1 (racemic; form 1) [listing 2 of 2 here],,53,> 36000,,,780,940,,,,,,,
CSc1ccc(-c2ccccc2C2CCC(F)(F)CC2C(=O)NCC#N)cc1 (racemic; form 2) [listing 2 of 2 here],,76,> 120000,,,880,1100,,,,,,,
